Values of other authors in article PMC6254723, “Synthesis and Pharmacological Screening of Several Aroyl and Heteroaroyl Selenylacetic Acid Derivatives as Cytotoxic and Antiproliferative Agents” (Molecules, 2009).

Tested on: MCF-7
Settings: comparison drugs, MCF-7 by context; no reference given; cited from earlier work

In the case of `CCC1=C[C@@H]2CN(C1)Cc1c([nH]c3ccccc13)[C@@](C(=O)OC)(c1cc3c(cc1OC)N(C)[C@H]1[C@@](O)(C(=O)OC)[C@H](OC(C)=O)[C@]4(CC)C=CCN5CC[C@]31[C@@H]54)C2` [vinorelbine], the GI50 is given as 5 ± 1.3 µM and the TGI is given as 100 ± 10.2 µM.
